Molecular target: catalytic domain 2 (CD2) of HDAC6 (Homo sapiens (Human), UniProt Q9UBN7)
Assay: Cellular target engagement assay - NanoBRET
Format: cell-based
Details: NanoLuc-HDAC6(CD2) in HEK293T cells, 2 hours, read-out: IC50 (HDAC6(CD2) interaction)
Procedure: NanoBRET target engagement was performed against the catalytic domain 2 (CD2) of HDAC6, with minor modifications of kit manufacturer protocol (Promega). Expression of exogenous NanoLuc-HDAC6(CD2) fusion and in HEK293T was achieved following transient transfection with FuGENE HD Transfection Reagent (Promega). The intracellular target engagement assay on HDAC6(CD2) was performed in a 384-well plate format with 8,000 cells per well and a tracer concentration of 0.125 μM or 0.600 μM for HDAC6(CD2). Compounds (dissolved in 100% DMSO) or DMSO (vehicle) were added either manually by diluting them in culture medium at 8× final assay concentration and then adding 5 μL to assay plate or in an automated way by adding […] compound to 5 μL OptiMEM without phenol red (Gibco) using the Echo650 (Labcyte). Tracer solution was added to the cells before seeding 35 μL cell/tracer mixture in the assay plate. The final reaction volume was 40 μL, final DMSO concentration was 1.4% (manual compound addition) or 1.25% (automated compound addition). Assay plates were incubated at 37° C. in a humidified atmosphere containing 5% C02 for 2 hours. The NanoBRET Nano-glo Substrate/Inhibitor was prepared by diluting NanoBRET Nano-Glo Substrate (1:332) and Extracellular Inhibitor (1:1000) in assay medium (Promega). […] BRET ratios were calculated from acceptor/donor signal ratio (mBRET=acceptor/donor*1000) and normalized for each plate. Percentage inhibition was calculated by setting the mBRET obtained with cells without tracer to 100%, while the mBRET obtained with uninhibited cells with tracer was set to 0%. IC50-values were calculated from the percentage inhibition with the log(inhibitor) vs. response—Variable slope (four parameters) nonlinear regression in GraphPad Prism software.

catalytic domain 2 (CD2) of HDAC6, sequence (Q9UBN7 482-800): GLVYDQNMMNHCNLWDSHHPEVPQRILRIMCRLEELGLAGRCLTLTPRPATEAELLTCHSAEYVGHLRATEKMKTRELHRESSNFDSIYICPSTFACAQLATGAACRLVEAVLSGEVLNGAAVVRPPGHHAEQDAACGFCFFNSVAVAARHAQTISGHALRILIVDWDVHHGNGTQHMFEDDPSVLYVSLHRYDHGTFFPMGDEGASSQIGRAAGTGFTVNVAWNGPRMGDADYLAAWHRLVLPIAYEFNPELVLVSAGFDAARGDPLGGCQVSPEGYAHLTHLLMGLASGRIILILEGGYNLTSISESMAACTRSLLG

Row | IC50 | Structure (SMILES)
1 | 100 to 500 nM | CC(=O)NCCc1ccc(C(=O)CSc2nc3nc(C)ccc3o2)s1 [Compound 104, N-(2-(5-(2-((5-methyloxazolo[4,5-b]pyridin-2-yl)thio)acetyl)thiophen-2-yl)ethyl)acetamide]
2 | 1000 to 10000 nM | O=C(CO)NCc1ccc(C(=O)CSc2nc3cc(C(F)(F)F)ccc3o2)s1 [Compound 105, 2-hydroxy-N-((5-(2-((5-(trifluoromethyl)benzo[d]oxazol-2-yl)thio)acetyl)thiophen-2-yl)methyl)acetamide]
3 | ≤ 100 nM | Cc1nc(SCC(=O)c2ccc(CNC(=O)CO)s2)c2cc(C3CC3)ccc2n1 [Compound 106, N-((5-(2-((6-cyclopropyl-2-methylquinazolin-4-yl)thio)acetyl)thiophen-2-yl)methyl)-2-hydroxyacetamide]
4 | 100 to 500 nM | Cc1cc2nc(C(F)(F)F)nc(SCC(=O)c3ccc(CNC(=O)CO)s3)n2n1 [Compound 107, 2-hydroxy-N-((5-(2-((7-methyl-2-(trifluoromethyl)pyrazolo[1,5-a][1,3,5]triazin-4-yl)thio)acetyl)thiophen-2-yl)methyl)acetamide]
5 | 100 to 500 nM | Cc1nc(SCC(=O)c2ccc(CNC(=O)C3CC3(F)F)s2)c2cccnc2n1 (stereo not drawn) [Compound 110, 2,2-difluoro-N-((5-(2-((2-methylpyrido[2,3-d]pyrimidin-4-yl)thio)acetyl)thiophen-2-yl)methyl)cyclopropane-1-carboxamide]
6 | 100 to 500 nM | Cn1cc2c(SCC(=O)c3ccc(CNC(=O)C4CC4(F)F)s3)nc(C(F)(F)F)nc2n1 (stereo not drawn) [Compound 111, 2,2-difluoro-N-((5-(2-((2-methyl-6-(trifluoromethyl)-2H-pyrazolo[3,4-d]pyrimidin-4-yl)thio)acetyl)thiophen-2-yl)methyl)cyclopropane-1-carboxamide]
7 | ≤ 100 nM | O=C(CO)NCc1ccc(C(=O)CSc2nc(C(F)(F)F)nc3cc(C4CC4)nn23)s1 [Compound 112, N-((5-(2-((7-cyclopropyl-2-(trifluoromethyl)pyrazolo[1,5-a][1,3,5]triazin-4-yl)thio)acetyl)thiophen-2-yl)methyl)-2-hydroxyacetamide]
8 | 100 to 500 nM | Cc1nc(SCC(=O)c2ccc(CNC(=O)C3CC3(F)F)s2)c2cc(OC(F)(F)F)ccc2n1 (stereo not drawn) [Compound 120, 2,2-difluoro-N-((5-(2-((2-methyl-6-(trifluoromethoxy)quinazolin-4-yl)thio)acetyl)thiophen-2-yl)methyl)cyclopropane-1-carboxamide]
9 | ≤ 100 nM | COc1cc2c(SCC(=O)c3ccc(CNC(=O)CO)s3)nc(C)nc2cn1 [Compound 121, 2-hydroxy-N-((5-(2-((6-methoxy-2-methylpyrido[3,4-d]pyrimidin-4-yl)thio)acetyl)thiophen-2-yl)methyl)acetamide]
10 | ≤ 100 nM | O=C(CSc1nc(C(F)(F)F)nc2ncccc12)c1ccc(CNS(=O)(=O)C2CC2)s1 [Compound 122, N-((5-(2-((2-(trifluoromethyl)pyrido[2,3-d]pyrimidin-4-yl)thio)acetyl)thiophen-2-yl)methyl)cyclopropanesulfonamide]
11 | ≤ 100 nM | O=C(CSc1nc(C(F)(F)F)nc2ncccc12)c1ccc(CNS(=O)(=O)CC(F)(F)F)s1 [Compound 123, 2,2,2-trifluoro-N-((5-(2-((2-(trifluoromethyl)pyrido[2,3-d]pyrimidin-4-yl)thio)acetyl)thiophen-2-yl)methyl)ethane-1-sulfonamide]
12 | ≤ 100 nM | CCS(=O)(=O)NCc1ccc(C(=O)CSc2nc(C(F)(F)F)nc3ncccc23)s1 [Compound 127, N-((5-(2-((2-(trifluoromethyl)pyrido[2,3-d]pyrimidin-4-yl)thio)acetyl)thiophen-2-yl)methyl)ethanesulfonamide]
13 | ≤ 100 nM | CN(Cc1ccc(C(=O)CSc2nc(C(F)(F)F)nc3ncccc23)s1)C(=O)CO [Compound 131, 2-hydroxy-N-methyl-N-((5-(2-((2-(trifluoromethyl)pyrido[2,3-d]pyrimidin-4-yl)thio)acetyl)thiophen-2-yl)methyl)acetamide]
14 | 100 to 500 nM | COc1ccc2nc(C(F)(F)F)nc(SCC(=O)c3ccc(CNC(=O)C(C)(C)O)s3)c2c1 [Compound 134, 2-hydroxy-N-((5-(2-((6-methoxy-2-(trifluoromethyl)quinazolin-4-yl)thio)acetyl)thiophen-2-yl)methyl)-2-methylpropanamide]
15 | ≤ 100 nM | CCn1ncc2c(SCC(=O)c3ccc(CNC(=O)CO)s3)nc(C(F)(F)F)nc21 [Compound 136, N-((5-(2-((1-ethyl-6-(trifluoromethyl)-1H-pyrazolo[3,4-d]pyrimidin-4-yl)thio)acetyl)thiophen-2-yl)methyl)-2-hydroxyacetamide]
16 | 100 to 500 nM | COc1ccc2nc(C(F)F)nc(SCC(=O)c3ccc(CNC(=O)CO)s3)c2c1 [Compound 139, N-((5-(2-((2-(difluoromethyl)-6-methoxyquinazolin-4-yl)thio)acetyl)thiophen-2-yl)methyl)-2-hydroxyacetamide]
17 | 100 to 500 nM | COc1cccc2nc(C)nc(SCC(=O)c3ccc(CNC(=O)CO)s3)c12 [Compound 143, 2-hydroxy-N-((5-(2-((5-methoxy-2-methylquinazolin-4-yl)thio)acetyl)thiophen-2-yl)methyl)acetamide]
18 | ≤ 100 nM | CCOc1ccc2nc(C)nc(SCC(=O)c3ccc(CNC(=O)CO)s3)c2c1 [Compound 144, N-((5-(2-((6-ethoxy-2-methylquinazolin-4-yl)thio)acetyl)thiophen-2-yl)methyl)-2-hydroxyacetamide]
19 | ≤ 100 nM | CCOc1cc2c(SCC(=O)c3ccc(CNC(=O)CO)s3)nc(C)nc2cn1 [Compound 145, N-((5-(2-((6-ethoxy-2-methylpyrido[3,4-d]pyrimidin-4-yl)thio)acetyl)thiophen-2-yl)methyl)-2-hydroxyacetamide]
20 | ≤ 100 nM | Cc1nc(SCC(=O)c2ccc(CNC(=O)CO)s2)c2c(F)c(Cl)ccc2n1 [Compound 146, N-((5-(2-((6-chloro-5-fluoro-2-methylquinazolin-4-yl)thio)acetyl)thiophen-2-yl)methyl)-2-hydroxyacetamide]
21 | ≤ 100 nM | Cc1nc(SCC(=O)c2ccc(CNC(=O)CO)s2)c2cc(N(C)C)ncc2n1 [Compound 149, N-((5-(2-((6-(dimethylamino)-2-methylpyrido[3,4-d]pyrimidin-4-yl)thio)acetyl)thiophen-2-yl)methyl)-2-hydroxyacetamide]
22 | ≤ 100 nM | Cc1nc(SCC(=O)c2ccc(CNC(=O)CO)s2)c2cc(C(F)(F)F)cc(N(C)C)c2n1 [Compound 150, N-((5-(2-((8-(dimethylamino)-2-methyl-6-(trifluoromethyl)quinazolin-4-yl)thio)acetyl)thiophen-2-yl)methyl)-2-hydroxyacetamide]
23 | 100 to 500 nM | CNc1cc(C(F)(F)F)cc2c(SCC(=O)c3ccc(CNC(=O)CO)s3)nc(C)nc12 [Compound 151, 2-hydroxy-N-((5-(2-((2-methyl-8-(methylamino)-6-(trifluoromethyl)quinazolin-4-yl)thio)acetyl)thiophen-2-yl)methyl)acetamide]
24 | 100 to 500 nM | COc1cnc2nc(C)nc(SCC(=O)c3ccc(CN(C)C(=O)CO)s3)c2c1 [Compound 162, 2-hydroxy-N-((5-(2-((6-methoxy-2-methylpyrido[2,3-d]pyrimidin-4-yl)thio)acetyl)thiophen-2-yl)methyl)-N-methylacetamide]
25 | 100 to 500 nM | COc1ccc2nc(C)nc(SCC(=O)c3ccc(CNC(=O)C4CCCO4)s3)c2c1 (stereo not drawn) [Compound 171, N-((5-(2-((6-methoxy-2-methylquinazolin-4-yl)thio)acetyl)thiophen-2-yl)methyl)tetrahydrofuran-2-carboxamide]
26 | 100 to 500 nM | COc1ccc2nc(C)nc(SCC(=O)c3ccc(CNC(=O)C(F)F)s3)c2c1 [Compound 172, 2,2-difluoro-N-((5-(2-((6-methoxy-2-methylquinazolin-4-yl)thio)acetyl)thiophen-2-yl)methyl)acetamide]
27 | 100 to 500 nM | COc1ccc2nc(C)nc(SCC(=O)c3ccc(CNC(=O)CN)s3)c2c1 [Compound 177, 2-amino-N-((5-(2-((6-methoxy-2-methylquinazolin-4-yl)thio)acetyl)thiophen-2-yl)methyl)acetamide]
28 | ≤ 100 nM | COc1ccc2nc(C)nc(SCC(=O)c3ccc(CNC(=O)C4CN(C)C4)s3)c2c1 [Compound 178, N-((5-(2-((6-methoxy-2-methylquinazolin-4-yl)thio)acetyl)thiophen-2-yl)methyl)-1-methylazetidine-3-carboxamide]
29 | 100 to 500 nM | CNCC(=O)NCc1ccc(C(=O)CSc2nc(C)nc3ccc(OC)cc23)s1 [Compound 183, N-((5-(2-((6-methoxy-2-methylquinazolin-4-yl)thio)acetyl)thiophen-2-yl)methyl)-2-(methylamino)acetamide]
30 | 100 to 500 nM | COc1ccc2nc(C)nc(SCC(=O)c3ccc(CNC(=O)C4CCCN4)s3)c2c1 (stereo not drawn) [Compound 184, N-((5-(2-((6-methoxy-2-methylquinazolin-4-yl)thio)acetyl)thiophen-2-yl)methyl)pyrrolidine-2-carboxamide]

From US20250051319A1 (AUGUSTINE THERAPEUTICS, priority 2021, published 2025)
